Reference: PMC11358156 (Nature Cardiovascular Research, 2024)

Legend:
[1] = molecular target: T1, fast skeletal myosin MYH1 (Oryctolagus cuniculus, UniProt A0A5F9CQ93); experiment: myofibril ATPase assay; type: biochemical
T1 construct: with sarcomere proteins (actin, troponin, tropomyosin) of the myofibril

β-cardiac myosin (β-MHC) = molecular target: T2, β-cardiac myosin (β-MHC) (Bos taurus, UniProt Q9BE39); experiment: co-crystal structure at […] Å with aficamten and vanadate; type: binding
T2 construct: gene MYH7; motor domain (MD) in the pre-powerstroke state
T2 sequence (Q9BE39 1-782): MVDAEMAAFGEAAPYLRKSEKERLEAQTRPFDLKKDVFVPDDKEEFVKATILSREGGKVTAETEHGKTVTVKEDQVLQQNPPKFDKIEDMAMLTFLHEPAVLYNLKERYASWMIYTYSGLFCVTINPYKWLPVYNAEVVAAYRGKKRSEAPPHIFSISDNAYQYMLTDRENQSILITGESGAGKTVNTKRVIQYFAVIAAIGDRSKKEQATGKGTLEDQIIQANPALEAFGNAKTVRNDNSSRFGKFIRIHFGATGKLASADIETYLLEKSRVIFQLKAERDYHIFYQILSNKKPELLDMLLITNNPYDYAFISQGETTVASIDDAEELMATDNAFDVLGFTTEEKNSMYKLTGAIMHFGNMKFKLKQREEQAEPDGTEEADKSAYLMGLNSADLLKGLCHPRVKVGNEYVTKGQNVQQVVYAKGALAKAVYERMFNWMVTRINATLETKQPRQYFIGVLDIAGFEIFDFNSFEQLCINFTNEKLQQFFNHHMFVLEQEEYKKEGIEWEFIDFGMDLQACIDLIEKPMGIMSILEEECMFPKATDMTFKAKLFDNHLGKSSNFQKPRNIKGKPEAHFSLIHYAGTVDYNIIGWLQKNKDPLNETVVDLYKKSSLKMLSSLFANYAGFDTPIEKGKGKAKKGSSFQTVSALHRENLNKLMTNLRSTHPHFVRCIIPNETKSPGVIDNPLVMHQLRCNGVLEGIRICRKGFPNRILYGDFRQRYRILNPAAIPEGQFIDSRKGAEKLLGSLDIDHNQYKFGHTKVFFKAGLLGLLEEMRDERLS

T1 sequence (P02602 2-192): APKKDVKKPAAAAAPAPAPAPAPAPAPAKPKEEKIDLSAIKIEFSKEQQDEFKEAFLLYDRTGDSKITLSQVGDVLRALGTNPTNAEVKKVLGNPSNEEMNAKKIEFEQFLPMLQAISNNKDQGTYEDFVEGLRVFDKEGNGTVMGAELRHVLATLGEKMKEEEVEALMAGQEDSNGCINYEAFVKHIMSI
T1 sequence (P02608 2-170, further chain): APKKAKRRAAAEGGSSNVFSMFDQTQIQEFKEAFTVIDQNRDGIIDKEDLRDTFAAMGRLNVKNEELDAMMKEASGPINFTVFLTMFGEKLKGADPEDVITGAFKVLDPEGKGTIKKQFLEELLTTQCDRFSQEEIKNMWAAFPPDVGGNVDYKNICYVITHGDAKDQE
T1 sequence (A0A5F9CQ93 entry or part of it): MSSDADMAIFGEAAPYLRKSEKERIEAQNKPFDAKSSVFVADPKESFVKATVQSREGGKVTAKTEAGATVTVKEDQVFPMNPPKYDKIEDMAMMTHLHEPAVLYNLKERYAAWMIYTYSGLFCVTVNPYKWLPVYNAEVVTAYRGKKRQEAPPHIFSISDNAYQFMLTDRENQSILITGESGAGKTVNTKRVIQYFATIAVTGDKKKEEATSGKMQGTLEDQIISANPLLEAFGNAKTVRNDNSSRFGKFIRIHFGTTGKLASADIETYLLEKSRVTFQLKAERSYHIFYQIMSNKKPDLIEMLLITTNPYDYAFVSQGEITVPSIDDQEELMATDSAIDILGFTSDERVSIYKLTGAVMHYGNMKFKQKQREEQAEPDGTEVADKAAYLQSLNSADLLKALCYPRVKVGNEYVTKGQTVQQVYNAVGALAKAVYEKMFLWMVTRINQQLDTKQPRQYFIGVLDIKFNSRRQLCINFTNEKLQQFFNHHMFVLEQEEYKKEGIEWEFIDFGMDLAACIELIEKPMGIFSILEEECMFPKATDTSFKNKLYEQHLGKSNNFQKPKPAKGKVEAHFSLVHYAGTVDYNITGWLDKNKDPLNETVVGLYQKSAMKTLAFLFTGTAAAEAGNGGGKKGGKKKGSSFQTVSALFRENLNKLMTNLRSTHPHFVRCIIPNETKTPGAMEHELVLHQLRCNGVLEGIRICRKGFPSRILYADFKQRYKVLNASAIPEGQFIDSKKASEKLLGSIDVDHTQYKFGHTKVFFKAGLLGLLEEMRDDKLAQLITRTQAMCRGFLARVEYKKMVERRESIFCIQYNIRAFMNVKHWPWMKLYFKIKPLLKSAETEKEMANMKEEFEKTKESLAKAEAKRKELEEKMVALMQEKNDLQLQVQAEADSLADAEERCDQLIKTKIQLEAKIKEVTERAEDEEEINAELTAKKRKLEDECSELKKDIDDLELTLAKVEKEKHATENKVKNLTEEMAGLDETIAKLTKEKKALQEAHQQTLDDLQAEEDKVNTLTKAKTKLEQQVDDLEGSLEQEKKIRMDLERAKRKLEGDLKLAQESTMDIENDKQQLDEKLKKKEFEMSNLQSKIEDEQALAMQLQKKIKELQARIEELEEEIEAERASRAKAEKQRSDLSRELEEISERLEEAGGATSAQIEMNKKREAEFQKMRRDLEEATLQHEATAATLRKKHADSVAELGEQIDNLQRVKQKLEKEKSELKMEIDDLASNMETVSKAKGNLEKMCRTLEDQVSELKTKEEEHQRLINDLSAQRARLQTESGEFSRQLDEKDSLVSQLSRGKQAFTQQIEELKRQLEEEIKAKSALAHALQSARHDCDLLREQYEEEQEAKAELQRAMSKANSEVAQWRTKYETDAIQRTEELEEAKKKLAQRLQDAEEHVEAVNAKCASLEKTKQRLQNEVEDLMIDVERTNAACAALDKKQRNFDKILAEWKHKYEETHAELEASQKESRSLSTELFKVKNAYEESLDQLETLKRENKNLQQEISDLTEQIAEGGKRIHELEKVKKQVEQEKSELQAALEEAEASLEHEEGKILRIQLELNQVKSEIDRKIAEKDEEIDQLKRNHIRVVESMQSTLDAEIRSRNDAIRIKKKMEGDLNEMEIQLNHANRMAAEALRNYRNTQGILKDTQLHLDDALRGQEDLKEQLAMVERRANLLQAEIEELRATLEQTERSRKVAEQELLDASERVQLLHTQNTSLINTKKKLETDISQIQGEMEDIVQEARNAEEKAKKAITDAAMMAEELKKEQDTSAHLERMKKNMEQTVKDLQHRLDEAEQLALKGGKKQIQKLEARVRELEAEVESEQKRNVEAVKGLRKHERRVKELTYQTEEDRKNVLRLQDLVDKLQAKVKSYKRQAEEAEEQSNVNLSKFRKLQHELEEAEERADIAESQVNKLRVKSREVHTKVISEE

Row | Structure (SMILES) | IC50 [1] [µM] | co-crystal structure at 2.33 Å with aficamten and vanadate (β-cardiac myosin (β-MHC))
1 | CCc1nc(-c2ccc3c(c2)CC[C@H]3NC(=O)c2cnn(C)c2)no1 [aficamten] | 6.52 | 
2 | Nc1ncnc2c1ncn2[C@@H]1O[C@H](COP(=O)(O)OP(=O)(O)O)[C@@H](O)[C@H]1O [ADP] |  | the upper inset displays ADP and Vanadate and the lower inset displays aficamten
